According to ChEMBL document CHEMBL1159156, “Design, synthesis and biological activity of some 4-DAMP- related compounds” (Bioorg Med Chem Lett, 1995):
pKi: −log10 of the molar value.

Experiments:
[1] = molecular target: T1, Muscarinic acetylcholine receptor M1 (Rattus norvegicus, UniProt P08482); experiment: Compound was tested for inhibiting [3H]pirenzepine Binding to Muscarinic receptor (M1) receptor in Rat Cortex Homogenates
T1 sequence (P08482 whole entry): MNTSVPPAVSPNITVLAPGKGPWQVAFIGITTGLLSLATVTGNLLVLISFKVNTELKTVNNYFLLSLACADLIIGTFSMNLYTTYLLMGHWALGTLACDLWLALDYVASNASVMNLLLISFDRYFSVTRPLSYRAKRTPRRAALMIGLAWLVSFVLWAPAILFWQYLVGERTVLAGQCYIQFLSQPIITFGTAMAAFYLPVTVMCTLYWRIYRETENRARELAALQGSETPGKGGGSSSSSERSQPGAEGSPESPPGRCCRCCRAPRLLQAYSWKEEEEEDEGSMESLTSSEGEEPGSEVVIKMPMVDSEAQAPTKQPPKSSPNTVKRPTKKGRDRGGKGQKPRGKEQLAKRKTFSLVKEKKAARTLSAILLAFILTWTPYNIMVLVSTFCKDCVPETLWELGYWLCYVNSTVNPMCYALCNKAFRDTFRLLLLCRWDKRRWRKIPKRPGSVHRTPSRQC

[2] = molecular target: Muscarinic acetylcholine receptor M2 (Cavia porcellus); experiment: Evaluation of antagonistic affinity against muscarinic receptor (M2) in guinea pig left atria; conditions: read-out: pA2 (converted)
[3] = molecular target: T2, Muscarinic acetylcholine receptor M2 (Rattus norvegicus, UniProt P10980); experiment: Compound was tested for inhibiting [3H]N-Methyl-scopolamine Binding to Muscarinic receptor (M2) in Rat Heart
T2 sequence (P10980 whole entry): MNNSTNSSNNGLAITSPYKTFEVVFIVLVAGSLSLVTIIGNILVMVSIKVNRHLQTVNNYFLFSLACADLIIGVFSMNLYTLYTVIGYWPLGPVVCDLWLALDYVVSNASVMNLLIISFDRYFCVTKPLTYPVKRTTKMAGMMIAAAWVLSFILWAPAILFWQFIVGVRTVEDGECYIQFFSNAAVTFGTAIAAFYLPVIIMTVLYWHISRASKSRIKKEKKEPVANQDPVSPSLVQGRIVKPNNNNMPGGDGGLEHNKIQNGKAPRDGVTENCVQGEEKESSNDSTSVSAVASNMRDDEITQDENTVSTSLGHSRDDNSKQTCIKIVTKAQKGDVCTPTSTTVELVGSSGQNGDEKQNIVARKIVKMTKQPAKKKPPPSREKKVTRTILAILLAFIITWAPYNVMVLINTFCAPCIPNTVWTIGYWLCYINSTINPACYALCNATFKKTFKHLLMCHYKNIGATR

[4] = molecular target: Muscarinic acetylcholine receptor M3 (Rattus norvegicus, UniProt P08483); experiment: Compound was tested for inhibiting [3H]N-Methyl-scopolamine Binding to Muscarinic receptor (M3) in Rat Submaxillary Gland
Muscarinic acetylcholine receptor M3 (Rattus norvegicus, UniProt P08483), sequence (P08483 whole entry): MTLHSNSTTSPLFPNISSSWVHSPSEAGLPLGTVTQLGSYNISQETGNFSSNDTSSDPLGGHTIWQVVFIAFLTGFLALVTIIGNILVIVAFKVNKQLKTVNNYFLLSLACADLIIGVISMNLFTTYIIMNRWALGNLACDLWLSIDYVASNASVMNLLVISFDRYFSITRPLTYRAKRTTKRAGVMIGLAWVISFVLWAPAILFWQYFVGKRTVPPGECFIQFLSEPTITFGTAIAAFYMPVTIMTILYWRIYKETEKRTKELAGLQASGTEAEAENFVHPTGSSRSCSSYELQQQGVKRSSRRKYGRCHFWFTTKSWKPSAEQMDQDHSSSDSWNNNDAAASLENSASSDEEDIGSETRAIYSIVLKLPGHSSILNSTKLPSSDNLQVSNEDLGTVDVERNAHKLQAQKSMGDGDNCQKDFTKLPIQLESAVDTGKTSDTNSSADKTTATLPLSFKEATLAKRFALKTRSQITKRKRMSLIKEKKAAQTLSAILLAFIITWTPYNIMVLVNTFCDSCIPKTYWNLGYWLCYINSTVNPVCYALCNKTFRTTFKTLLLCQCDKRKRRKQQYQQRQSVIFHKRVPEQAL

[5] = molecular target: Muscarinic acetylcholine receptor M3 (Cavia porcellus, UniProt Q8VH26); experiment: Evaluation of antagonistic affinity against muscarinic receptor (M3) in guinea pig ileum; format: functional, tissue-based; conditions: read-out: pA2 (converted)
Muscarinic acetylcholine receptor M3 (Cavia porcellus, UniProt Q8VH26), sequence (Q8VH26 whole entry): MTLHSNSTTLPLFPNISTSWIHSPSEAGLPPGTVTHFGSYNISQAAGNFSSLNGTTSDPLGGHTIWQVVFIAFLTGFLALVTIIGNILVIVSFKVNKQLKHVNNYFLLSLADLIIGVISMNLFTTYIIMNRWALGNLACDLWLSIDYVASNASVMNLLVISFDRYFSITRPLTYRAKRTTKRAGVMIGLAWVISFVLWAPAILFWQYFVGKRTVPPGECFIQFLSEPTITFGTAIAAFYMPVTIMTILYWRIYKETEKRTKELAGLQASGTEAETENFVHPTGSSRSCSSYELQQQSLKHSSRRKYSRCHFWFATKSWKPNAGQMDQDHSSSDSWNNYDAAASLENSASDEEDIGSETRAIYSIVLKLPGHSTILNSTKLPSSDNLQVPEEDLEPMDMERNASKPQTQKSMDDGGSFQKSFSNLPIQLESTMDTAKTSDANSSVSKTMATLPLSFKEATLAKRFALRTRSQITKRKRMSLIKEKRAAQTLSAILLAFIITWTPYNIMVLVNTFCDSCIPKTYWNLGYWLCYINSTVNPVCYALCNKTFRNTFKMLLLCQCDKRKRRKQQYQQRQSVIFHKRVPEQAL

[6] = molecular target: T3, Muscarinic acetylcholine receptor M4 (Homo sapiens, UniProt P08173); experiment: Compound was tested for binding affinity against Muscarinic acetylcholine receptor M4 in NG 108-15 cell homogenates; format: cell-based
T3 sequence (P08173 whole entry): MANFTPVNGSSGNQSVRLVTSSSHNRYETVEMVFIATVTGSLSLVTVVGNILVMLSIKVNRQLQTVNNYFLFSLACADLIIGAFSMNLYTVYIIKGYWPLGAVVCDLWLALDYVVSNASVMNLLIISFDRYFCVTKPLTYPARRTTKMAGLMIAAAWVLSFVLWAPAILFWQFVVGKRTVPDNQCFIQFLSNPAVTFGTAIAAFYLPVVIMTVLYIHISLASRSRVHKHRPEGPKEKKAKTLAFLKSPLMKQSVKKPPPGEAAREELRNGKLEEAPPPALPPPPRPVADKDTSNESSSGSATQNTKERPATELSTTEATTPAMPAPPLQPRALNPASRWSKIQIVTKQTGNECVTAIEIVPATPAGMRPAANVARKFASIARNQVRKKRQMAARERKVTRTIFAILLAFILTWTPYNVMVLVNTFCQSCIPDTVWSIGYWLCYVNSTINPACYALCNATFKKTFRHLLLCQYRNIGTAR

Compound	pKi [1]	Kb [2] [nM]	pKi [3]	pKi [4]	Kb [5] [nM]	pKi [6]
C[N+]1(C)CCC2(CC1)OC(=O)C(c1ccccc1)(c1ccccc1)O2	8.30	1.23	8.56	8.53	0.933	–
C[N+]1(C)C2CCC1CC1(C2)OC(=O)C(c2ccccc2)(c2ccccc2)O1 (stereo in doubt; 4a)	9.40	–	–	7.98	3.63	8.33
C[N+]1(C)C2CCC1CC1(C2)OC(=O)C(c2ccccc2)(c2ccccc2)O1 (stereo in doubt; 4b)	9.10	–	–	7.30	20.9	8.36
C[N+]1(C)CCC(OC(=O)C(c2ccccc2)c2ccccc2)CC1 [4-DAMP]	9.23	–	–	–	–	–
